≈ marks a conversion by molar mass, not a printed value.
Tested on: Mycobacterium tuberculosis
Experiment: Antimycobacterial activity against rifampin,isoniazid-resistant Mycobacterium tuberculosis expressing rpoB/katG mutant after 10 days by microbroth dilution method
Format: functional

Structure (SMILES)	MIC [µM]
Brc1ccc(-c2ncncc2-c2cc3ccccc3s2)s1	33.49 (≈ 12.5 µg/mL)
c1ccc(-c2ccc(-c3ncncc3-c3csc4ccccc34)s2)cc1	0.4 (≈ 0.148 µg/mL)
c1csc(-c2ncncc2-c2ccsc2)c1	25.58 (≈ 6.25 µg/mL)
c1csc(-c2cncnc2)c1	38.53 (≈ 6.25 µg/mL)
c1csc(-c2cncnc2-c2cccs2)c1	12.69 (≈ 3.1 µg/mL)
c1csc(-c2ccc(-c3ncncc3-c3cccs3)s2)c1	2.14 (≈ 0.699 µg/mL)
Brc1ccc(-c2cncnc2)s1	51.84 (≈ 12.5 µg/mL)
Brc1ccc(-c2ncncc2-c2ccsc2)s1	19.34 (≈ 6.25 µg/mL)
c1ccc2sc(-c3cncnc3)cc2c1	58.89 (≈ 12.5 µg/mL)
c1ncc(-c2ccsc2)cn1	77.06 (≈ 12.5 µg/mL)
Brc1ccc(-c2ncncc2-c2csc3ccccc23)s1	8.3 (≈ 3.1 µg/mL)
c1csc(-c2ncncc2-c2cc3ccccc3s2)c1	21.23 (≈ 6.25 µg/mL)
c1csc(-c2ccc(-c3cncnc3)s2)c1	25.58 (≈ 6.25 µg/mL)
c1ccc2c(-c3cncnc3)csc2c1	7.07 (≈ 1.5 µg/mL)
c1ccc(-c2ccc(-c3ncncc3-c3ccsc3)s2)cc1	19.5 (≈ 6.25 µg/mL)
c1ccc(-c2ccc(-c3cncnc3)s2)cc1	26.23 (≈ 6.25 µg/mL)
c1csc(-c2ccc(-c3ncncc3-c3csc4ccccc34)s2)c1	0.98 (≈ 0.369 µg/mL)
Brc1ccc(-c2ncncc2Br)s1	9.69 (≈ 3.1 µg/mL)
Brc1ccc(-c2ncncc2-c2cccs2)s1	38.67 (≈ 12.5 µg/mL)
Brc1cncnc1	78.62 (≈ 12.5 µg/mL)
c1csc(-c2ccc(-c3ccncn3)s2)c1	51.16 (≈ 12.5 µg/mL)
c1csc(-c2ccc(-c3ncncc3-c3cc4ccccc4s3)s2)c1	33.2 (≈ 12.5 µg/mL)
c1ccc(-c2ccc(-c3ncncc3-c3cccs3)s2)cc1	39.01 (≈ 12.5 µg/mL)
c1csc(-c2ncncc2-c2csc3ccccc23)c1	42.46 (≈ 12.5 µg/mL)
c1ccc(-c2ccc(-c3ncncc3-c3cc4ccccc4s3)s2)cc1	8.37 (≈ 3.1 µg/mL)
c1csc(-c2ccc(-c3ncncc3-c3ccsc3)s2)c1	19.14 (≈ 6.25 µg/mL)
